Measured values reported in PMC12699035, “Exploring market-approved azoles as potential breast cancer therapeutics targeting the VEGFR-2 biotarget” (Scientific Reports, 2025).
Where two headings read alike, the source gives them in different places.

Tests used:
MCF-7 cells = experiment: Cytotoxicity against MCF-7 cells, MTT assay (single dose and five doses); conditions: for Average OD / OD1 / OD2 / OD3: MCF-7, single dose 100 μg/mL, MTT optical density; for Average OD: average of triplicates; for OD1: replicate 1; for OD2: replicate 2; for OD3: replicate 3
VEGFR-2 = biological target: T1, VEGFR-2 (Homo sapiens, UniProt P35968); experiment: VEGFR-2 kinase inhibition, luminescent VEGFR2 (KDR) kinase assay kit (BPS Bioscience # 40325); format: biochemical; conditions: for VEGFR-2 enzyme inhibition LogIC50 (Fig. 3): unit not given
T1 construct: purchased BPS Bioscience 40325
Experimental: Functionally, this pathway operates in autocrine and intracrine modes to promote cell proliferation, survival, and resistance to apoptosis through downstream effectors such as PI3K/AKT and p38 MAPK.
(§1) SIT, FLU and TNZ were tested using the five dose sigmoidal curves to determine the IC50 values. […] At the end of these experiment, anti-tumor potentiality was recorded using tumor weight (mg), tumor volume (mm^3), and the tumor inhibition ratio (TIR%). Hematological parameters of Hemoglobin (Hb, g/dL), RBC’s count (10^6/μL), and WBC’s count (10^3/μL) were investigated, along with histopathological and immunohistochemical staining of the VEGR2 protein.
Compounds Itraconazole. […] [12].

MCF-10A cells = experiment: Cytotoxicity against MCF-10A cells, MTT assay (five doses); format: cell-based; conditions: Homo sapiens, MCF-10A normal cells, five dose concentrations, n = 3, read-out: MCF-10A IC50 ± SD
VEGF = experiment: Immunohistochemical staining of VEGF in SEC tumor sections; format: in vivo, mice; conditions: IHC of SEC tumor
Source text: VEGF has been considered a biomarker for VEGFR-2 bioactivity, as it binds to and activates this kinase receptor, playing a crucial role in angiogenesis. High VEGF levels are often associated with increased VEGFR-2 expression and activity, making VEGF a marker for VEGFR-2's function and tumor growth. […] The staining intensity is strong (+ 3), with dark brown cytoplasmic staining in most tumor cells. The immunoreactive score (IRS), calculated by multiplying the staining intensity score and the percentage of positive cells, is 9–12, indicating a high level of VEGF expression. This intense VEGF expression correlates with the presence of numerous irregular and dilated blood vessels in the tumor microenvironment.
The paraffin-infiltrated tissue was sliced into thin sections (4-6 μm) using a microtome and floated in a water bath. The sections were then mounted onto charged slides and left to dry overnight. The use of charged slides ensures the sections adhere properly to the slide. To carry out antibody staining, the paraffin wax was removed from the sample, and the tissue was rehydrated. The paraffin was eliminated by placing the tissue sections in three containers of xylene for 5 minutes each. Rehydration began by immersing the sections in two containers of 100% ethanol for 10 minutes each, followed by two containers of 95% ethanol for 10 minutes each. Finally, to complete the rehydration, the sections were washed twice in deionized water for 5 minutes each.
For antigen retrieval, the slides are heated in 10 mM Tris/1 mM EDTA, pH 9.0, kept at a sub-boiling temperature for 18 minutes, and then allowed to cool at room temperature for 30 minutes. For chromogenic staining detection, the sections are rinsed in deionized water three times for 5 minutes each, and then the endogenous peroxidase activity in the tissue sections is quenched to prevent high background staining by incubating the sections in 3% hydrogen peroxide for 10 minutes. Afterward, the sections are washed twice in deionized water for 5 minutes each, followed by a single wash in wash buffer for 5 minutes. A hydrophobic pen is used to carefully draw a large circle around the sample, ensuring it doesn’t touch the sample, creating a hydrophobic boundary to achieve optimal antibody staining quality. To prevent non-specific antibodies from binding to the tissue, each section is blocked with 100–400 µl of blocking solution for 1 hour at room temperature in a humidified chamber. The blocking solution was discarded, and 100–400 µl of diluted primary antibody was applied. […]
The slides were incubated overnight at 4°C in a humidified chamber. […] Then, 100–400 µl of Signal Stain DAB was applied to each section and monitored closely for 1–10 minutes until an acceptable staining intensity was achieved. […]

[1] = tested on: Solid Ehrlich Carcinoma (SEC); experiment: In vivo anti-tumor activity in solid Ehrlich carcinoma (SEC)-bearing mice (tumor mass, volume, TIR%, hematology, histopathology)
Experimental: All experimental protocols were approved by the Research Ethics Committee and Institutional Animal Care and Use Committee, Faculty of Science, Suez Canal University with the ethical code (SCU-Sci-REC439/2025), and all methods were carried out according to the European Union guidelines and in accordance with ARRIVE guidelines. All animals were anesthetized using a combination of Xylazine 10 mg/kg- Ketamine 100 mg/kg of body weight, respectively, prior sacrifice via cervical decapitation.
In all graphs, treatments were administrated intraperitoneal (IP) with 6 mg/Kg B.Wt. for two weeks, day after day.
as §1, with “values. They were tested for the VEGFR2 inhibition using VEGFR2 Kinase Inhibition Assay Kit Catalog # 40325 BPS Bioscience, San Diego, CA.” for “values.”
Adult female Swiss albino mice purchased from Faculty of Pharmacy, Suez Canal University, Ismailia, Egypt, with an average body weight of (18-23) g was used. Mice were housed under constant conditions of 12 h light/dark cycle in a […], with free access to standard laboratory mice food and water. All procedures related to care and maintenance of the animals were performed according to the international guiding principles for animal research and approved by the Faculty of Pharmacy, Suez Canal University bioethics and animal ethics committee.
Solid Ehrlich carcinoma (SEC) was got from the National Cancer Institute (Cairo University, Egypt). The tumor cell line proliferated in mice through serial intraperitoneal (I.P.) transplantation of a volume of 0.2 mL physiological saline containing 1×10^6 viable cells for 24 h. SEC cells were collected 7 days after I.P. implantation. The harvested cells were diluted with saline to obtain a concentration of 5×10^6 viable SEC cells/mL. A volume of 0.2 mL saline contains 1×10^6 SEC cells that were I.P. implanted into each normal mouse. SEC cells (1×10^6 tumor cells/mouse) were implanted subcutaneously into the right thigh of the hind limb.
The experimental animals were randomly divided into four groups. Group 1 served as the normal saline control. Group 2 served as the SEC control (1×10^6 cells/mouse). Group 3 served as the ITR-treated group (6 mg/kg B.Wt., I.P.). […] Body weight and survival were recorded daily until the 24th day in both treated and control groups. At the end of the experiment, anesthetized animals were then sacrificed for evaluation of the antitumor activity and histopathological examination.
It includes tumor volume, weight, and tumor inhibition ratio (TIR%). Time interval measurements of tumor volume using a digital Vernier caliper (Tricle Brand, Shanghai, China). Measure tumor length and width using a clipper and then calculate tumor volume using formulations V = (L x W x W)/2, where V is tumor volume, W is tumor width, L is tumor length. While TIR% was calculated according to the following equation Tumor volume Control-Tumor volume (treated)Tumor volume (control)x 100.
Specimens of liver-sacrificed mice were fixed in 10% saline formalin. The fixed liver specimens were Dehydrated in ascending series of ethyl alcohol and embedded in paraffin.

[2] = Homo sapiens, MCF7, read-out: Average viability%
[3] = Homo sapiens, MCF7, read-out: MCF-7 IC50 ± SD, MCF-7, five dose concentrations, MTT, n = 3
[4] = Homo sapiens, MCF7, read-out: Viability (%) 1
[5] = Homo sapiens, MCF7, read-out: Viability (%) 2
[6] = Homo sapiens, MCF7, read-out: Viability (%) 3
[7] = enzyme inhibition, dose-response, non-linear regression, read-out: VEGFR-2 inhibition IC50

T1 sequence (P35968 20-1356): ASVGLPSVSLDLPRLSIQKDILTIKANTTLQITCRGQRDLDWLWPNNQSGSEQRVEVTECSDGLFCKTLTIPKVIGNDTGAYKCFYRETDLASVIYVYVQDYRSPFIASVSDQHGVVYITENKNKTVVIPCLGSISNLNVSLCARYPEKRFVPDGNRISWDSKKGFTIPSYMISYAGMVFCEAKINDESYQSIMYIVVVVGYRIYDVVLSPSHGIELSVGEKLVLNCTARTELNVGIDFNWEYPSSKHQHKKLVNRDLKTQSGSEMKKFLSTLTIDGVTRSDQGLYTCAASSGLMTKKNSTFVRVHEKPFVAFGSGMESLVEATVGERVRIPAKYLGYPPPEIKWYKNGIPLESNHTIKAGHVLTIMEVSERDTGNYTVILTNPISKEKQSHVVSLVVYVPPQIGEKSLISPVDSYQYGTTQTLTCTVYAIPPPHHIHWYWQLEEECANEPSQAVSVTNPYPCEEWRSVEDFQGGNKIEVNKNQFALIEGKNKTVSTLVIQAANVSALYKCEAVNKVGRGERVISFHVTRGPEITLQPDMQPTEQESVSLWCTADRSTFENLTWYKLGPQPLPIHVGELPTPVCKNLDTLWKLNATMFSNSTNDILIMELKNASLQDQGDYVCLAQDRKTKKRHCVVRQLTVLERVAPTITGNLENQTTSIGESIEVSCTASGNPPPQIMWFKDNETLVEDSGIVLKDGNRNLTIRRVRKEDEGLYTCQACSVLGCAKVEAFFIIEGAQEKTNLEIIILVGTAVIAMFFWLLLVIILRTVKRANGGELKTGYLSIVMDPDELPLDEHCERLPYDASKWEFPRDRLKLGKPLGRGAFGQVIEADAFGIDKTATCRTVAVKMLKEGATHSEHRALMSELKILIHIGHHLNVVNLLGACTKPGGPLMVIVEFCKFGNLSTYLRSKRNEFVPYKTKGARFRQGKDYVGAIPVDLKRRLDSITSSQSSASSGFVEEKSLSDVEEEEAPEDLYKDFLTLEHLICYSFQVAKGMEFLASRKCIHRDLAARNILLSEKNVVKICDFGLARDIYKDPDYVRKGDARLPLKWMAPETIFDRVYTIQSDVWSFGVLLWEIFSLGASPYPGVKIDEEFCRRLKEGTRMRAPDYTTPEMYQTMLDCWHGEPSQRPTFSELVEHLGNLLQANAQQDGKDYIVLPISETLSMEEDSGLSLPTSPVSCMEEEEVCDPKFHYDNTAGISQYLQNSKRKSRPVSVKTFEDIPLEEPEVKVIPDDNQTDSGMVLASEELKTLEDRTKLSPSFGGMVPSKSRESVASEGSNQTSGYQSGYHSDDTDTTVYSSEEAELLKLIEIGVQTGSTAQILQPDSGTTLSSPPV

SMILES | viability at 100 µg/mL (MCF-7 cells; [2]) [%] | IC50 (MCF-7 cells; [3]) [µM] | viability at 100 µg/mL (MCF-7 cells; [4]) [%] | viability at 100 µg/mL (MCF-7 cells; [5]) [%] | viability at 100 µg/mL (MCF-7 cells; [6]) [%] | Average OD (MCF-7 cells) | OD1 (MCF-7 cells) | OD2 (MCF-7 cells) | OD3 (MCF-7 cells) | VEGFR-2 enzyme inhibition LogIC50 (Fig. 3) (VEGFR-2; dose-response curve fit) | IC50 (MCF-10A cells) [µM] | further results
CCS(=O)(=O)CCn1c([N+](=O)[O-])cnc1C [Tinidazole, tinidazole] | 67.5 | 301 | 68.2 | 66.2 | 68 | 2.16 | 2.20 | 2.14 | 2.19 | 1.913 | 51.5 ± 1.8 | IC50 (MCF-7 cells; read-out: MCF-7 IC50 ± SD, MCF-7, five dose concentrations, MTT, n = 3, listed as TNZ): 301 ± 7.6 µM; IC50 (VEGFR-2; dose-response curve fit, unit inferred, read-out: VEGFR-2 enzyme inhibition IC50 (Fig. 3)): 81900 nM; IC50 (VEGFR-2; enzyme inhibition, unit printed as nM in text, read-out: VEGFR-2 inhibition IC50): 81900 nM
COc1cccc2c1C(=O)c1c(O)c3c(c(O)c1C2=O)C[C@@](O)(C(=O)CO)C[C@@H]3O[C@H]1C[C@H](N)[C@H](O)[C@H](C)O1 [DOX, doxorubicin] | 46.2 | 3.91 ± 0.6 | 41.9 | 42.9 | 53.6 | 1.49 | 1.35 | 1.38 | 1.73 | – | 38.9 ± 1.1 | –
CNC(=O)c1cc(Oc2ccc(NC(=O)Nc3ccc(Cl)c(C(F)(F)F)c3)cc2)ccn1 [Sorafenib] | – | – | – | – | – | – | – | – | – | – | – | immunoreactive score (IRS) (VEGF; scale 0-12, SEC control 9–12): 1–2; percentage of VEGF-positive tumor cells (VEGF; SEC control 80–90%): 10–30%; solid tumor mass ([1]; 6 mg/Kg B.Wt. IP, two weeks, day after day, SEC control 469 mg): 229 mg; tumor volume ([1]; 6 mg/Kg B.Wt. IP, two weeks, day after day, SEC control 420 mm^3): 214 mm^3; WBC's count ([1]; 6 mg/Kg IP, normal 5, SEC control 9.2): 6.6 10^3/µL; RBC's count ([1]; 6 mg/Kg IP, normal 6.9, SEC control 3.1): 4.9 10^6/µL; Hemoglobin level ([1]; 6 mg/Kg IP, normal 11.6, SEC control 4.6): 6.9 g/dL; Tumor cell density (histopathology of SEC mass) ([1]; isolated tumor mass, SEC control 2.2 cm^2): 0.5 cm^2
Clc1ccc(COC(Cn2ccnc2)c2ccc(Cl)cc2Cl)c(Cl)c1 (stereo not shown) [Miconazole, miconazole] | 76 | – | 77 | 76 | 75 | 2.45 | 2.48 | 2.45 | 2.42 | – | – | –
N[C@@H](CC(=O)N1CCn2c(nnc2C(F)(F)F)C1)Cc1cc(F)c(F)cc1F [Sitagliptin, sitagliptin] | 64.6 | 183 | 65.7 | 64.4 | 63.8 | 2.08 | 2.12 | 2.08 | 2.06 | 2.016 | 37.6 ± 1.9 | IC50 (MCF-7 cells; read-out: MCF-7 IC50 ± SD, MCF-7, five dose concentrations, MTT, n = 3, listed as SIT): 183 ± 3.1 µM; IC50 (VEGFR-2; [7]): 104000 nM
OC(Cn1cncn1)(Cn1cncn1)c1ccc(F)cc1F [Fluconazole, fluconazole] | 64.3 | 260 | 62.7 | 67.3 | 62.9 | 2.07 | 2.02 | 2.17 | 2.03 | 2.535 | 32.3 ± 1.77 | IC50 (MCF-7 cells; read-out: MCF-7 IC50 ± SD, MCF-7, five dose concentrations, MTT, n = 3, listed as FLU): 261 ± 6.8 µM; IC50 (VEGFR-2; [7]): 343000 nM
CCCCc1nc(Cl)c(CO)n1Cc1ccc(-c2ccccc2-c2nn[nH]n2)cc1 [Losartan, losartan] | 71 | – | 71.4 | 69.1 | 72.3 | 2.29 | 2.30 | 2.23 | 2.33 | – | – | –
O=C1CN(/N=C/c2ccc(-c3ccc([N+](=O)[O-])cc3)o2)C(O)=N1 [Dantrolene, dantrolene] | 70 | – | 72 | 65.7 | 72.5 | 2.26 | 2.32 | 2.12 | 2.34 | – | – | –
